Source: US10344019B2 (priority 2010, dated 2019)
Read-outs that look alike come from different tables or passages of the source.

Assays:
Assay in all cases: microbe, parasite or virus in culture
Assay type in all cases: cell-based
[1] = tested on: HCV 3a RLuc cells (NS5A chimeric genotype 1b Con1 replicon with consensus genotype 3a NS5A gene)
Summary of the method: (§1)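 Replicon cells stably carrying the listed RLuc-encoding dicistronic replicons were seeded and treated with DMSO serial dilutions of compound (10 mM stocks) diluted into culture medium. After 72 h, cells were lysed and Renilla luciferase activity measured. EC50 was derived by non-linear regression.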

[2] = tested on: HCV 4a Rluc cells (NS5A chimeric genotype 1b Con1 replicon with genotype 4a NS5A gene); details: Hepatitis C virus, read-out: 4a
Summary of the method: as §1

[3] = tested on: HCV 1a RLuc cells (dicistronic genotype 1a H77 replicon, RLuc reporter); details: read-out: 1a
Summary of the method: as §1

[4] = tested on: HCV 2a JFH-1 Rluc cells (dicistronic genotype 2a JFH-1 replicon, RLuc reporter); details: genotype 2a JFH-1 replicon, read-out: 2a JFH
Summary of the method: as §1

[5] = tested on: HCV 1b RLuc cells (dicistronic genotype 1b Con1 replicon, RLuc reporter)
Summary of the method: as §1

[6] = Hepatitis C virus, read-out: 3a, genotype 3a replicon
[7] = Hepatitis C virus, genotype 1a replicon
[8] = Hepatitis C virus, read-out: 1b (nM)
[9] = Hepatitis C virus, read-out: 3a, genotype 3a NS5A chimeric 1b Con1 replicon
[10] = Hepatitis C virus, genotype 1a H77 replicon, RLuc reporter
[11] = Hepatitis C virus, RLuc reporter
[12] = Hepatitis C virus, read-out: 3a, Table 2, genotype 3a NS5A chimeric replicon
[13] = Hepatitis C virus, 72 h, Table 2, genotype 1a H77 replicon, 72 hours
[14] = Hepatitis C virus, 72 h, Table 2, 72 hours
[15] = Hepatitis C virus, 72 h, read-out: 1b (nM)
[16] = Hepatitis C virus, read-out: 3a, Table 1, genotype 3a NS5A chimeric replicon
[17] = Hepatitis C virus, 72 h, Table 1, genotype 1a H77 replicon, 72 hours
[18] = Hepatitis C virus, 72 h, Table 1, 72 hours

Structure (SMILES)	EC50 [2] [nM]	EC50 [5, 8] [nM]	EC50 [1, 9] [nM]	EC50 [3, 10] [nM]	EC50 [4, 11] [nM]	other results
COC(=O)N[C@H](C(=O)N1CCC[C@H]1c1ncc(-c2ccc3cc(-c4ccc5c(ccc6nc([C@@H]7[C@H]8CC[C@H](C8)N7C(=O)[C@H](NC(=O)OC)c7ccccc7)[nH]c65)c4)ccc3c2)[nH]1)C(C)C [Example 326]	0.001 to 0.99	0.005	–	–	–	EC50 [1, 6]: 1 to 4.99 nM; EC50 [3, 7]: 0.001 to 0.999 nM; EC50 ([4]; Hepatitis C virus): 0.001 to 0.999 nM
COC(=O)N[C@H](C(=O)N1CCC[C@H]1c1nc2ccc3cc(-c4ccc5cc(-c6cnc([C@@H]7CCCN7C(=O)[C@@H](NC(=O)OC)C7CCOCC7)[nH]6)ccc5c4)ccc3c2[nH]1)C(C)C [Example 195]	0.001 to 0.99	0.023	1 to 4.99	0.001 to 0.999	0.001 to 0.999	–
CCN(CC)C(C(=O)N1CCC[C@H]1c1ncc(-c2ccc(-c3ccc4c(c3)C(F)(F)c3cc(-c5cnc([C@@H]6CCCN6C(=O)C(NC(=O)OC)C(C)C)[nH]5)ccc3-4)cc2)[nH]1)c1ccccc1 (stereo partly drawn) [Example 200]	0.001 to 0.99	0.009	1 to 4.99	1 to 44	1 to 44	–
COC(=O)N[C@H](C(=O)N1CCC[C@H]1c1ncc(-c2ccc(-c3cc4ccc(-c5c[nH]c([C@@H]6CCCN6C(=O)[C@H](NC(=O)OC)c6ccccc6)n5)cc4s3)cc2)[nH]1)C(C)C [Example 252]	0.001 to 0.99	0.004	0.001 to 0.99	0.001 to 0.999	0.001 to 0.999	–
COC(=O)NC(C(=O)N1CCC[C@H]1C1=NC(c2ccc3cc(-c4ccc5c(ccc6nc([C@@H]7CCCN7C(=O)[C@@H](NC(=O)OC)C7CCOCC7)[nH]c65)c4)ccc3c2)=CC1)c1cccnc1 (stereo partly drawn) [Example 239]	0.001 to 0.99	0.078	0.001 to 0.99	0.001 to 0.999	0.001 to 0.999	–
COC(=O)N[C@H](C(=O)N1CCC[C@H]1c1ncc(-c2ccc(-c3ccc(-c4cnc([C@@H]5CCCN5C(=O)[C@H](NC(=O)OC)c5ccccc5)[nH]4)cc3)cc2)[nH]1)C(C)C [Example 60]	0.001 to 0.99	–	–	–	–	EC50 [1, 12]: 0.001 to 0.99 nM; EC50 [3, 13]: 1 to 44 nM; EC50 [4, 14]: 0.001 to 0.999 nM; EC50 [5, 15]: 0.02 nM
COC(=O)N[C@H](C(=O)N1CCC[C@H]1c1nc2ccc3cc(-c4ccc(-c5cnc([C@@H]6[C@H]7CC[C@H](C7)N6C(=O)[C@@H](NC(=O)OC)C6CCOCC6)[nH]5)c(F)c4)ccc3c2[nH]1)C(C)C [Example 305]	0.001 to 0.99	0.017	–	–	–	EC50 [1, 6]: 0.001 to 0.99 nM; EC50 [3, 7]: 0.001 to 0.999 nM; EC50 ([4]; Hepatitis C virus): 0.001 to 0.999 nM
COC(=O)N[C@H](C(=O)N1CCC[C@H]1c1nc2ccc3cc(C#Cc4ccc(-c5cnc([C@@H]6CCCN6C(=O)[C@H](NC(=O)OC)c6ccccc6)[nH]5)cc4)ccc3c2[nH]1)[C@@H](C)OC [Example 268]	0.001 to 0.99	0.007	0.001 to 0.99	0.001 to 0.999	0.001 to 0.999	–
COC(=O)N[C@H](C(=O)N1CCC[C@H]1c1ncc(-c2ccc3c(c2)COc2c-3ccc3cc(-c4cnc([C@@H]5CCCN5C(=O)OCc5ccccc5)[nH]4)ccc23)[nH]1)C1CCOCC1 [Example 6]	0.001 to 0.99	–	–	–	–	EC50 [1, 16]: > 5 nM; EC50 [3, 17]: 1 to 44 nM; EC50 [4, 18]: 1 to 44 nM; EC50 [5, 15]: 0.051 nM
COC(=O)N[C@H](C(=O)N1CCC[C@H]1c1nc2c([nH]1)-c1ccc(-c3ccc4cc(-c5cnc([C@@H]6CCCN6C(=O)[C@H](NC(=O)OC)c6ccccc6)[nH]5)ccc4c3)cc1CC2)C1CCOCC1 [Example 279]	0.001 to 0.99	–	–	–	–	EC50 ([1]; read-out: 3a, genotype 3a NS5A chimeric 1b Con1 replicon): 0.001 to 0.99 nM; EC50 ([3]; genotype 1a H77 replicon, RLuc reporter): 1 to 44 nM; EC50 ([4]; RLuc reporter): 1 to 44 nM; EC50 ([5]; read-out: 1b): 0.031 nM
COC(=O)N[C@H](C(=O)N1CCC[C@H]1c1ncc(-c2ccc3c(c2)COc2c-3ccc3cc(-c4cnc([C@@H]5CCCN5C(=O)[C@H](NC(=O)OC)c5ccccc5)[nH]4)ccc23)[nH]1)[C@@H](C)OC [Example 14]	0.001 to 0.99	–	–	–	–	EC50 [1, 16]: 0.001 to 0.99 nM; EC50 [3, 17]: 0.001 to 0.999 nM; EC50 [4, 18]: 0.001 to 0.999 nM; EC50 [5, 15]: 0.01 nM
COC(=O)NC(C(=O)N1CCC[C@H]1c1ncc(-c2ccc3cc(-c4ccc(-c5cnc([C@@H]6CC(C)(Br)CN6C(=O)[C@@H](NC(=O)OC)C6CCOCC6)[nH]5)cc4)ccc3c2)[nH]1)c1ccccc1 (stereo partly drawn) [Example 205]	0.001 to 0.99	0.016	1 to 4.99	0.001 to 0.999	0.001 to 0.999	–
COC(=O)NC(C(=O)N1CCC[C@H]1c1ncc(-c2ccc3c(c2)C(F)(F)c2cc(-c4ccc5nc([C@@H]6CCCN6C(=O)[C@@H](NC(=O)OC)[C@@H](C)OC)[nH]c5c4)ccc2-3)[nH]1)C(C)C (stereo partly drawn) [Example 264]	0.001 to 0.99	0.006	1 to 4.99	0.001 to 0.999	1 to 44	–
COC(=O)N[C@H](C(=O)N1CCC[C@H]1c1nc2ccc3cc(-c4ccc5c(c4)CCc4nc([C@@H]6[C@H]7CC[C@H](C7)N6C(=O)[C@@H](NC(=O)OC)C(C)C)[nH]c4-5)ccc3c2[nH]1)C(C)C [Example 290]	0.001 to 0.99	0.017	–	–	–	EC50 [1, 6]: 0.001 to 0.99 nM; EC50 [3, 7]: 0.001 to 0.999 nM; EC50 ([4]; Hepatitis C virus): 0.001 to 0.999 nM
COC(=O)N[C@H](C(=O)N1CCC[C@H]1c1nc2ccc3cc(-c4ccc5cc(-c6cnc([C@@H]7CCCN7C(=O)[C@H](NC(=O)OC7COC7)c7ccccc7)[nH]6)ccc5c4)ccc3c2[nH]1)C(C)C [Example 289]	0.001 to 0.99	0.01	0.001 to 0.99	0.001 to 0.999	0.001 to 0.999	–
COC(=O)N[C@H](C(=O)N1CCC[C@H]1c1ncc(-c2ccc3cc(-c4ccc(-c5cnc([C@@H]6CC(F)(F)CN6C(=O)[C@H](NC(=O)OC)c6ccccc6)[nH]5)cc4)ccc3c2)[nH]1)C1CCOCC1 [Example 225]	0.001 to 0.99	0.009	0.001 to 0.99	0.001 to 0.999	0.001 to 0.999	–
COC(=O)N[C@H](C(=O)N1CC2(CC2)C[C@H]1c1ncc(-c2ccc3c(c2)C(F)(F)c2cc(-c4ccc5nc([C@@H]6[C@H]7CC[C@H](C7)N6C(=O)[C@@H](c6ccccc6)N6CCOCC6)[nH]c5c4)ccc2-3)[nH]1)C(C)C [Example 96]	0.001 to 0.99	–	–	–	–	EC50 [1, 12]: 1 to 4.99 nM; EC50 [3, 13]: 0.001 to 0.999 nM; EC50 [4, 14]: 1 to 44 nM; EC50 [5, 15]: 0.006 nM
COC(=O)N[C@H](C(=O)N1CCC[C@H]1c1nc2ccc3cc(-c4ccc5cc(-c6cnc([C@@H]7CCCN7C(=O)[C@H](NC(=O)N7CCOCC7)c7ccccc7)[nH]6)ccc5c4)ccc3c2[nH]1)C(C)C [Example 288]	0.001 to 0.99	0.009	0.001 to 0.99	0.001 to 0.999	0.001 to 0.999	–
COC(=O)N[C@H](C(=O)N1CCC[C@H]1c1ncc(-c2ccc3cc(-c4ccc(-c5cnc([C@@H]6CCCN6C(=O)C6(NC(=O)OC)CCc7ccccc76)[nH]5)cc4)ccc3c2)[nH]1)C(C)C (stereo partly drawn) [Example 196]	0.001 to 0.99	0.036	> 5	1 to 44	1 to 44	–
COC(=O)N[C@H](C(=O)N1CCC[C@H]1c1nc2c([nH]1)-c1ccc(-c3ccc4cc(-c5cnc([C@@H]6CCCN6C(=O)[C@H](NC(=O)OC)c6ccccc6)[nH]5)ccc4c3)cc1CC2)C1CCNCC1 [Example 284]	0.001 to 0.99	4.62	> 5	1 to 44	1 to 44	–
COC(=O)N[C@H](C(=O)N1CCC[C@H]1c1ncc(-c2cccc(-c3ccc4cc(-c5cnc([C@@H]6CCCN6C(=O)[C@@H](NC(=O)OC)C(C)C)[nH]5)ccc4c3)c2)[nH]1)C(C)C [Example 243]	0.001 to 0.99	4.59	> 5	> 44	> 44	–
COC(=O)N[C@H](C(=O)N1CCC[C@H]1c1ncc(-c2ccc3c(c2)COc2c-3ccc(-c3cnc([C@@H]4CCCN4C(=O)[C@@H](NC(=O)OC)C(C)C)[nH]3)c2F)[nH]1)C(C)C [Example 308]	0.001 to 0.99	0.008	–	–	–	EC50 [1, 6]: 0.001 to 0.99 nM; EC50 [3, 7]: 0.001 to 0.999 nM; EC50 ([4]; Hepatitis C virus): 0.001 to 0.999 nM
COC(=O)NC(C(=O)N1CCC[C@H]1c1ncc(-c2ccc3c(c2)C(F)(F)c2cc(-c4ccc(-c5cnc([C@@H]6CCCN6C(=O)[C@H](NC(=O)OC)c6ccccc6)[nH]5)cc4)ccc2-3)[nH]1)C1CCOCC1 (stereo partly drawn) [Example 199]	0.001 to 0.99	0.01	1 to 4.99	1 to 44	1 to 44	–
COC(=O)N[C@H](C(=O)N1CCC[C@H]1c1ncc(-c2ccc3c(c2)CCc2cc(-c4cnc([C@@H]5[C@H]6CC[C@H](C6)N5C(=O)[C@@H](NC(=O)OC)C5CCOCC5)[nH]4)ccc2-3)[nH]1)C(C)C [Example 92]	0.001 to 0.99	–	–	–	–	EC50 [1, 12]: 0.001 to 0.99 nM; EC50 [3, 13]: 0.001 to 0.999 nM; EC50 [4, 14]: 0.001 to 0.999 nM; EC50 [5, 15]: 0.047 nM
